According to US7514419B2, “Phosphorus-containing thyromimetics” (Metabasis Therapeutics, Inc., priority 2003, dated 2009):

Legend:
ZDF rats [1] = assay: Circulating TSH, ZDF rats, 28 days; format: in vivo, rat; conditions: 50 mg/kg/d for 28 days
Description: (§1) Another concern with synthetic thyromimetics is the suppression of the endogenous thyroid axis. Thyroid homeostasis is maintained by the action of thyroid releasing hormone (TRH) and thyroid stimulating hormone (TSH). […] Although this particular side effect has been noted, it has typically been treated with less concern than the cardiac safety issues. […] Therefore previous investigators have measured TSH levels when testing synthetic thyromimetics and have used a 30% decrease of TSH as the denominator in their therapeutic index calculations. […] Therefore, both compounds suppress TSH as doses lower than that required to decrease circulating cholesterol. […] However, 0.2 mg/kg/d of Compound 18 in 28 day treated ZDF rats, decreased TSH levels greater than 90%.

cholesterol-fed rat [2] = assay: Subacute study in cholesterol-fed rats, IP once-a-day for seven days: serum cholesterol, heart weight, heart mGPDH
Method: The cholesterol-fed rat is an animal model of hypercholesterolemia generated by feeding the animals a diet with high cholesterol content.
Methods: Rats were maintained on a diet containing 1.5% cholesterol and 0.5% cholic acid for 2 weeks prior to initiation of treatment. Serum cholesterol values were assessed and the animals randomized into groups for treatment.

[3] = test system: normal rats maintained on a cholesterol-containing diet; assay: Continuous infusion study in rats on a cholesterol-containing diet; conditions: continuous infusion 1 mg/kg/day
Method: Screening for thyromimetic activity was performed in normal rats maintained on a cholesterol-containing diet.

mice = assay: Circulating TSH, mice, 77 days; format: in vivo, mouse; conditions: 10 mg/kg/d for 77 days
Description: as §1

Normal rats = assay: Hepatic triglyceride content in normal rats infused for 7 days; format: in vivo, rat; conditions: normal rats chronically infused for 7 days
Method: Normal rats were chronically infused with Compound 7 for 7 days. Liver triglycerides were analyzed following lipid extraction by the Bligh Dyer method (Bligh EG and Dyer WJ, A rapid method of total lipid extraction and purification. Can J Med Sci. 1959 (August); 37(8):911-7, incorporated herein by reference). Total triglycerides were analyzed in the liver extracts by an enzymatic assay (Thermo Electron Corporation). Total lipid was normalized to initial liver weight and triglyceride content was normalized to liver weight. […] There was a 4% reduction in liver triglycerides for this group and the results were not statistically significant.

ZDF rats [4] = assay: Hepatic triglyceride content and steatosis in ZDF rats, oral 28 days; format: in vivo, rat
Method: In other experiments, Compound 7 was orally administered to ZDF rats for 28 days. Liver triglycerides were analyzed as described above. Total liver triglycerides were reduced in the treated animals 42% in the 2.5 mg/kg/d group. […] The hepatic steatosis is a well known and described phenomenon for the ZDF rat, and therefore not attributable to vehicle treatment.

Sprague Dawley (SD) rat = assay: Cardiovascular activity in the Sprague Dawley rat, 7 days oral; format: in vivo; conditions: SD rats, Compound 18 1 mg/kg, Compound cis-13-1 1-50 mg/kg/day
Description: Method: […] The control group (n=6) was given vehicle only. […] On the 7th day after the start of dosing, animals were anesthetized with Isofluorane and the left ventricle cannulated with a high fidelity catheter tip transducer via the right carotid artery. Left ventricular pressure, its first derivative (LVdP/dt), lead I ECG, and heart rate (HR) triggered off the ECG waveform, were digitally recorded. LV dP/dt is a well accepted measure of ionotropic state. Systolic and diastolic aortic pressures were measured by retracting the catheter into the proximal aorta.

ZDF rats [5] = conditions: ZDF, rat, in vivo, po, 28 days
Method: Compound 18 was administered at doses up to 5 mg/kg/d. Compound cis-13-1 was administered at doses up to 50 mg/kg/d. We reasoned that the ZDF rat, as a metabolically challenged animal model, would be more sensitive to the potential adverse cardiac effects of thyromimetics than a normal, cholesterol-fed rat. At sacrifice, heart rate, and the first derivative of left ventricular pressure (LV dP/dt) were measured with a Millar catheter inserted into the left ventricle.

cholesterol-fed rat [6] = conditions: ED15 for heart rate compared to ED50 for cholesterol lowering; cited from earlier work
cholesterol-fed rats = assay: Circulating TSH, cholesterol-fed rats, 7 days; format: in vivo, rat; conditions: cholesterol-fed rats treated for 7 days; 30% decrease of TSH
Description: as §1

cholesterol fed rats = assay: Subacute study in cholesterol fed rats, PO once a day for seven days: cholesterol reduction, heart weight; format: in vivo, rat; conditions: 1 mg/kg/day PO once a day for seven days
Method: Methods: […] Compound 13-1-cis and Compound 18 were administered PO once a day for seven days. Serum TSH is measured using an enzyme immunoassay (EIA) kit designed for rat TSH (Amersham Pharmacia Biotech, Arlington Heights, Ill.). Expression levels of liver genes (e.g., the LDL-receptor, apoB, cpt-1, spot14 and apoAI) and heart genes ([…]2, HCN2,Kvl.5, MHCα, MHCβ, Alpha1c) are quantified by Northern blot analysis or by RT-PCR. […] Oligonucleotides specific for the complementary gene sequences are used to make ^32P-labeled probes (Multiprime DNA labeling systems, Amersham Pharmacia Biotech). Following hybridization of the probes to the nylon membranes, radioactivity is assessed on a blue film (Eastman Kodak Co,), and the resulting image quantified using the appropriate software. RT-PCR is performed using an iCycler instrument (Biorad) using appropriate primers by means of standard methodology [[…] et al. (2000) Life Sciences 66: 1683-94]. […] The activities of PEPCK and glucose 6-phosphatase in liver are measured by means of direct enzymatic assays of homogenized liver tissue as described by Andrikopoulos S et al. (1993) Diabetes 42: 1731-1736. Alternatively, expression levels of the corresponding genes are determined by Northern blot analysis or RT-PCR as described above.

TI for LV dP/dt (ZDF rats [5])	SMILES	TSH vs vehicle (ZDF rats [1])	Cardiac GPDH activity (cholesterol-fed rat [2]; Compound 17 at 1 mg/kg/day, compound 7 only at 100 mg/kg)	therapeutic window (efficacy vs toxicity) (cholesterol-fed rat [2]; cholesterol lowering vs cardiac hypertrophy, induction of heart GPDH)	total cholesterol at day 7 [3]	total cholesterol at day 14 [3]	cardiovascular parameters (heart rate, LV dP/dt, blood pressure) ([3]; day 7 or day 14)	TSH (mice)	decrease in hepatic triglyceride content (Normal rats) [%]	microvesicular steatosis (H&E liver sections) (ZDF rats [4])	HR, LV dP/dt and aortic pressure compared to vehicle (Sprague Dawley (SD) rat)	therapeutic index with respect to heart rate (ZDF rats [5])	therapeutic index (TI) with respect to heart rate increases (cholesterol-fed rat [6])	therapeutic index of TSH levels (cholesterol-fed rats)	serum cholesterol (cholesterol fed rats)
	Cc1cc(OCP(=O)(O)O)cc(C)c1Cc1ccc(O)c(C(C)C)c1 [Compound 7, [3,5-dimethyl-4-(4′-hydroxy-3′-iso-propylbenzyl)phenoxy]-methylphosphonic acid]	no statistically significant difference from vehicle	trend towards increased heart GPDH activity	10-to 100 fold	cholesterol lowering effects	cholesterol lowering effects	no changes in any of the cardiovascular parameters	no decrease in TSH was observed	64	dose dependent reduction in the microvesicular steatosis					
0.15	CC(C)c1cc(Oc2c(Cl)cc(CC(=O)O)cc2Cl)ccc1O [Compound 18, 3,5-dichloro-4-[4′-hydroxy-3′-iso-propylphenoxy]-benzeneacetic acid, reference compound]										marked and statistically significant increases	0.4	40	0.4	significantly decreased serum cholesterol
